Measured values: the supplement of paper PMC11061612

Columns and labels:
Test in all cases: Bliss excess, mean over the matrix (fraction); higher = more synergy
[1] = system: SK-MES-1 (Squamous Cell Lung Carcinoma)
Method in brief: (§1)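 Cell lines in DMEM/F12 or RPMI with 10% FBS were plated in 1536-well plates, held 24 hours at 37°C, 5% CO2, then given two-drug dose matrices for 72 hours (DMSO typically 0.2%). Viability was read by CellTiter-Glo 2.0 luminescence and scaled as inhibition from 0 (vehicle wells) to 1 (blank wells). Combination Emax is the second-highest inhibition in the matrix; Bliss excess is observed combination effect minus expected EA + EB − EA·EB, EA and EB being single-agent effects.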

[2] = system: NCI-H2066 (Squamous Cell Lung Carcinoma)
Method in brief: as §1

Hs-445 (Non-Cancerous) = system: Hs-445 (Non-Cancerous)
Method in brief: as §1

[3] = system: BICR22 (Oral Cavity Carcinoma)
Method in brief: as §1

[4] = system: NCI-H1666 (Lung Adenocarcinoma)
Method in brief: as §1

[5] = system: TT (Thyroid Gland Carcinoma)
Method in brief: as §1

[6] = system: NCI-H1581 (Non-Small Cell Lung Carcinoma)
Method in brief: as §1

A498 (Kidney Carcinoma) = system: A498 (Kidney Carcinoma)
Method in brief: as §1

[7] = system: COR-L311 (Small Cell Lung Carcinoma)
Method in brief: as §1

[8] = system: SK-MG-1 (Low Grade Glioma)
Method in brief: as §1

[9] = system: CCK-81 (Colorectal Carcinoma)
Method in brief: as §1

[10] = system: COLO-824 (Breast Carcinoma)
Method in brief: as §1

ARH-77 (Non-Cancerous) = system: ARH-77 (Non-Cancerous)
Method in brief: as §1

[11] = system: NCI-H1650 (Lung Adenocarcinoma)
Method in brief: as §1

CAS-1 (Glioblastoma) = system: CAS-1 (Glioblastoma)
Method in brief: as §1

[12] = system: CAL-29 (Bladder Carcinoma)
Method in brief: as §1

[13] = system: CAPAN-2 (Pancreatic Carcinoma)
Method in brief: as §1

GI-ME-N (Neuroblastoma) = system: GI-ME-N (Neuroblastoma)
Method in brief: as §1

[14] = system: SISO (Cervical Carcinoma)
Method in brief: as §1

[15] = system: ONS-76 (Other Solid Carcinomas)
Method in brief: as §1

Compound	Bliss excess [1]	Bliss excess [2]	Bliss excess (Hs-445 (Non-Cancerous))	Bliss excess [3]	Bliss excess [4]	Bliss excess [5]	Bliss excess [6]	Bliss excess (A498 (Kidney Carcinoma))	Bliss excess [7]	Bliss excess [8]	Bliss excess [9]	Bliss excess [10]	Bliss excess (ARH-77 (Non-Cancerous))	Bliss excess [11]	Bliss excess (CAS-1 (Glioblastoma))	Bliss excess [12]	Bliss excess [13]	Bliss excess (GI-ME-N (Neuroblastoma))	Bliss excess [14]	Bliss excess [15]
CC1(C)CCC(CN2CCN(c3ccc(C(=O)NS(=O)(=O)c4ccc(NCC5CCOCC5)c([N+](=O)[O-])c4)c(Oc4cnc5[nH]ccc5c4)c3)CC2)=C(c2ccc(Cl)cc2)C1 [Venetoclax] + COc1cc(Nc2ncc3c(n2)-c2ccc(Cl)cc2C(c2c(F)cccc2OC)=NC3)ccc1C(=O)O [Alisertib] (first compound max 1 µM, 7x7, partner max 10 µM)	-0.0201	0.0077	0.374	0.0052	-0.0713	-0.113	0.0694	-0.0352	0.0981	-0.0126	0.0196	0.206	0.278	-0.0515	-0.0341	-0.0554	-0.0463	-0.094	0.0121	-0.0478
CCN(CCO)CCCOc1ccc2c(Nc3cc(CC(=O)Nc4cccc(F)c4)[nH]n3)ncnc2c1 [AZD2811] + O=C(c1cc(Cc2n[nH]c(=O)c3ccccc23)ccc1F)N1CCN(C(=O)C2CC2)CC1 [Olaparib] (first compound max 1 µM, 7x7, partner max 10 µM)	-0.0127	-0.022	0.0459	-0.0861	-0.0746	-0.0596	-0.0058	-0.0656	-0.0088	0.0331	0.032	-0.0071	0.0114	-0.025	-0.0608	0.0378	-0.0222	-0.0233	0.0951	-0.0103
CC1(C)CCC(CN2CCN(c3ccc(C(=O)NS(=O)(=O)c4ccc(NCC5CCOCC5)c([N+](=O)[O-])c4)c(Oc4cnc5[nH]ccc5c4)c3)CC2)=C(c2ccc(Cl)cc2)C1 [Venetoclax] + C[C@@H]1COCCN1C2=NC(=NC(=C2)C3(CC3)[S@](=N)(=O)C)C4=C5C=CNC5=NC=C4 [AZD6738] (first compound max 1 µM, 7x7, partner max 10 µM)	-0.0215	-0.0098	0.0577	-0.0511	-0.0405	-0.0387	0.007	-0.0459	-0.0291	-0.0553	-0.0197	-0.0203	0.0642	-0.0605	-0.0068	-0.018	-0.0439	-0.0353	-0.0309	-0.0531
CN(C)CCCOc1ccc(-c2ccc3ncc4c(c3c2)n(C2CCOCC2)c(=O)n4C)cn1 [AZD0156] + O=C(c1cc(Cc2n[nH]c(=O)c3ccccc23)ccc1F)N1CCN(C(=O)C2CC2)CC1 [Olaparib] (first compound max 3 µM, partner max 3 µM)	-0.0199	0.0139	-0.0211	-0.0003	0.0049	-0.0297	0.0465	0.047	0.092	0.0333	-0.0131	0.0729	0.0648	-0.0462	0.0481	0.0098	-0.0535	-0.0116	0.0631	0.0366
COc1cccc2c1C(=O)c1c(O)c3c(c(O)c1C2=O)C[C@@](O)(C(=O)CO)C[C@@H]3O[C@H]1C[C@H](N)[C@H](O)[C@H](C)O1 [Doxorubicin] + Cc1cc2ncnn2cc1Nc1ncc2c(n1)n(C1CCOCC1)c(=O)n2C [AZD7648] (first compound max 1 µM, 7x7, partner max 10 µM)	0.0477	-0.0396	0.102	0.0744	0.0129	0.01	0.0529	0.0163	0.0893	0.133	0.0481	0.0742	0.0783	-0.0002	0.105	0.0489	-0.0419	0.0207	0.0937	0.0314
C[C@@H]1COCCN1c1cc(C2([S@](C)(=N)=O)CC2)nc(-c2ccnc3[nH]ccc23)n1 [AZD6738] + O=C(c1cc(Cc2n[nH]c(=O)c3ccccc23)ccc1F)N1CCN(C(=O)C2CC2)CC1 [Olaparib] (first compound max 10 µM, 7x7, partner max 10 µM)	-0.0324	-0.0682	-0.0067	0.003	0.0073	-0.0219	0.0166	-0.0403	-0.0507	0.0121	-0.0049	-0.0314	-0.0297	-0.0152	0.0743	-0.0405	-0.0255	-0.0252	0.0221	-0.0284
CN(CCO)CC[C@H](CSc1ccccc1)Nc1ccc(S(=O)(=O)NC(=O)c2ccc(N3CCC([C@@H](O)c4ccccc4-c4ccc(Cl)cc4)CC3)cc2)cc1S(=O)(=O)C(F)(F)F [AZD4320] + Cn1cnc2c(F)c(Nc3ccc(Br)cc3Cl)c(C(=O)NOCCO)cc21 [Selumetinib] (first compound max 1 µM, 7x7, partner max 3 µM)	0.0282	0.0432	0.0606	-0.0468	0.0676	-0.033	0.0408	0.0329	-0.0034	0.102	0.133	-0.0523	-0.0039	0.0245	-0.054	0.0826	0.0819	0.0196	0.0504	0.019
CN(CCO)CC[C@H](CSc1ccccc1)Nc1ccc(S(=O)(=O)NC(=O)c2ccc(N3CCC([C@@H](O)c4ccccc4-c4ccc(Cl)cc4)CC3)cc2)cc1S(=O)(=O)C(F)(F)F [AZD4320] + C1CN(CCC1(C(=O)N[C@@H](CCO)C2=CC=C(C=C2)Cl)N)C3=NC=NC4=C3C=CN4 [Capivasertib] (first compound max 1 µM, 7x7, partner max 3 µM)	-0.0608	0.0311	0.0455	0.0051	-0.0491	-0.0456	-0.0143	-0.0049	0.0397	-0.048	-0.0258	-0.0103	0.0277	-0.0427	-0.078	-0.0397	-0.0534	-0.0729	-0.0332	-0.0469
CC(=O)Nc1cccc(-n2c(=O)n(C3CC3)c(=O)c3c(Nc4ccc(I)cc4F)n(C)c(=O)c(C)c32)c1 [Trametinib] + Cc1nc(-c2cn3c(n2)-c2ccc(-c4cnn(C(C)(C)C(N)=O)c4)cc2OCC3)n(C(C)C)n1 [Taselisib] (first compound max 1 µM, 7x7, partner max 10 µM)	0.198	0.0386	0.119	0.16	0.0857	0.0288	0.243	0.0344	0.0018	0.144	0.209	0.21	0.0785	0.0443	0.0153	0.136	0.117	0.0954	0.0809	0.0124
COc1nnc2ccc(N3CCC(c4ccc(OCCN5CCN(C)C(=O)[C@H]5C)cc4)CC3)nn12 [AZD5153] + CC1(C)CCC(CN2CCN(c3ccc(C(=O)NS(=O)(=O)c4ccc(NCC5CCOCC5)c([N+](=O)[O-])c4)c(Oc4cnc5[nH]ccc5c4)c3)CC2)=C(c2ccc(Cl)cc2)C1 [Venetoclax] (first compound max 1 µM, 7x7, partner max 1 µM)	-0.0349	-0.0919	0.0178	-0.0613	-0.0603	-0.0116	-0.115	-0.0895	0.0389	-0.0571	-0.054	-0.0176	-0.0033	-0.0349	-0.0621	-0.103	-0.0149	-0.0955	-0.0335	-0.0428
CCc1c2c(nc3ccc(O)cc13)-c1cc3c(c(=O)n1C2)COC(=O)[C@]3(O)CC [SN-38] + CN(C)CCCOc1ccc(-c2ccc3ncc4c(c3c2)n(C2CCOCC2)c(=O)n4C)cn1 [AZD0156] (first compound max 0.3 µM, 7x7, partner max 1 µM)	-0.0272	-0.0517	-0.018	0.0243	0.0313	-0.119	0.016	-0.0444	-0.152	0.23	0.135	0.0473	0.0037	-0.0079	-0.0101	-0.028	-0.0468	-0.0089	0.0978	0.0091
Cn1cnc2c(F)c(Nc3ccc(Br)cc3Cl)c(C(=O)NOCCO)cc21 [Selumetinib] + C[C@@H]1COCCN1C2=NC(=NC(=C2)C3(CC3)[S@](=N)(=O)C)C4=C5C=CNC5=NC=C4 [AZD6738] (first compound max 10 µM, 7x7, partner max 10 µM)	-0.025	0.004	-0.0473	-0.0834	-0.0124	-0.0154	-0.0025	-0.023	-0.056	0.0158	0.0233	-0.0111	0.029	-0.0315	-0.0163	0.0155	0.0596	-0.0028	-0.0241	-0.0914
Cn1cnc2c(F)c(Nc3ccc(Br)cc3Cl)c(C(=O)NOCCO)cc21 [Selumetinib] + C=CCn1c(=O)c2cnc(Nc3ccc(N4CCN(C)CC4)cc3)nc2n1-c1cccc(C(C)(C)O)n1 [AZD1775] (first compound max 10 µM, partner max 1 µM)	-0.0469	-0.0776	-0.133	-0.0362	-0.0542	-0.0599	0.0258	-0.0218	-0.0518	-0.106	-0.0167	-0.105	-0.0518	-0.0792	-0.0342	0.0074	0.033	-0.064	-0.0457	-0.0452
Cc1c2c(nn1C)CSCc1cc(n(C)n1)CSc1cc(c3ccccc3c1)OCCCc1c(C(=O)O)n(C)c3c-2c(Cl)ccc13 [AZD5991] + CN(C)CCCOc1ccc(-c2ccc3ncc4c(c3c2)n(C2CCOCC2)c(=O)n4C)cn1 [AZD0156] (first compound max 1 µM, 7x7, partner max 1 µM)	-0.0029	-0.0084	-0.106	0.016	0.0068	-0.071	0.0383	-0.0274	-0.0088	0.0058	0.0379	-0.004	-0.0423	-0.0398	0.0497	0.0308	0.0062	-0.04	0.0222	-0.0291
